# Columns and labels:
# AZD8186 = compound: C[C@@H](Nc1cc(F)cc(F)c1)c1cc(C(=O)N(C)C)cc2c(=O)cc(N3CCOCC3)oc12 [AZD8186]
# Summary of the method: (§1)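 After 24 hours at 37°C and 5% CO2 in 1536-well plates holding 7.5 μl of DMEM/F12 or RPMI with 10% FBS, cancer cell lines were dosed for 72 hours, with final DMSO typically 0.2%. Viability came from CellTiter-Glo 2.0 luminescence, scaled between the means of blank wells and DMSO wells. A non-linear mixed effects model fitted a two-parameter logistic curve to each dose response to give the single-agent IC50.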
# AZD1775 = compound: C=CCn1c(=O)c2cnc(Nc3ccc(N4CCN(C)CC4)cc3)nc2n1-c1cccc(C(C)(C)O)n1 [AZD1775]
# Summary of the method: as §1
# Savolitinib = compound: C[C@@H](c1ccc2nccn2c1)n1nnc2ncc(-c3cnn(C)c3)nc21 [Savolitinib]; conditions: max 1 µM
# Summary of the method: as §1
# Trametinib = compound: CC(=O)Nc1cccc(-n2c(=O)n(C3CC3)c(=O)c3c(Nc4ccc(I)cc4F)n(C)c(=O)c(C)c32)c1 [Trametinib]; conditions: max 1 µM
# Summary of the method: as §1
# AZD2811 = compound: CCN(CCO)CCCOc1ccc2c(Nc3cc(CC(=O)Nc4cccc(F)c4)[nH]n3)ncnc2c1 [AZD2811]; conditions: max 1 µM
# Summary of the method: as §1
# Lapatinib = compound: CS(=O)(=O)CCNCc1ccc(-c2ccc3ncnc(Nc4ccc(OCc5cccc(F)c5)c(Cl)c4)c3c2)o1 [Lapatinib]; conditions: max 10 µM
# Summary of the method: as §1
# Palbociclib = compound: CC(=O)c1c(C)c2cnc(Nc3ccc(N4CCNCC4)cn3)nc2n(C2CCCC2)c1=O [Palbociclib]; conditions: max 10 µM
# Summary of the method: as §1
# Prexasertib = compound: COc1cccc(OCCCN)c1-c1cc(Nc2cnc(C#N)cn2)n[nH]1 [Prexasertib]; conditions: max 1 µM
# Summary of the method: as §1
# SRA737 = compound: N#Cc1cnc(Nc2cc(NC[C@H]3CNCCO3)c(C(F)(F)F)cn2)cn1 [SRA737]; conditions: max 10 µM
# Summary of the method: as §1
# Olaparib = compound: O=C(c1cc(Cc2n[nH]c(=O)c3ccccc23)ccc1F)N1CCN(C(=O)C2CC2)CC1 [Olaparib]; conditions: max 10 µM
# Summary of the method: as §1
# Gefitinib = compound: COc1cc2ncnc(Nc3ccc(F)c(Cl)c3)c2cc1OCCCN1CCOCC1 [Gefitinib]; conditions: max 10 µM
# Summary of the method: as §1
# Carboplatin = compound: C1CC(C1)(C(=O)[O-])C(=O)[O-].N.N.[Pt+2] [Carboplatin]; conditions: max 10 µM
# Summary of the method: as §1
# SN-38 = compound: CCc1c2c(nc3ccc(O)cc13)-c1cc3c(c(=O)n1C2)COC(=O)[C@]3(O)CC [SN-38]; conditions: max 0.3 µM
# Summary of the method: as §1
# AZD4320 = compound: CN(CC[C@H](CSC1=CC=CC=C1)NC2=C(C=C(C=C2)S(=O)(=O)NC(=O)C3=CC=C(C=C3)N4CCC(CC4)[C@H](C5=CC=CC=C5C6=CC=C(C=C6)Cl)O)S(=O)(=O)C(F)(F)F)CCO [AZD4320]; conditions: max 1 µM
# Summary of the method: as §1
# Dasatinib = compound: CC1=C(C(=CC=C1)Cl)NC(=O)C2=CN=C(S2)NC3=CC(=NC(=N3)C)N4CCN(CC4)CCO [Dasatinib]; conditions: max 2 µM
# Summary of the method: as §1
# [1] = compound: O=C(Nc1ccc2[nH]nc(-c3ccncc3)c2c1)[C@@H]1CCN(CC(=O)N2CCN(c3ccc(-c4ncccn4)cc3)CC2)C1; conditions: max 5 µM
# Summary of the method: as §1
# MK-2206 = compound: NC1(c2ccc(-c3nc4ccn5c(=O)[nH]nc5c4cc3-c3ccccc3)cc2)CCC1 [MK-2206]; conditions: max 10 µM
# Summary of the method: as §1
# Doxorubicin = compound: COc1cccc2c1C(=O)c1c(O)c3c(c(O)c1C2=O)C[C@@](O)(C(=O)CO)C[C@@H]3O[C@H]1C[C@H](N)[C@H](O)[C@H](C)O1 [Doxorubicin]; conditions: max 1 µM
# Summary of the method: as §1
# 5-Fluorouracil = compound: O=c1[nH]cc(F)c(=O)[nH]1 [5-Fluorouracil]; conditions: max 20 µM
# Summary of the method: as §1
# Gemcitabine = compound: Nc1ccn([C@@H]2O[C@H](CO)[C@@H](O)C2(F)F)c(=O)n1 [Gemcitabine]; conditions: max 0.3 µM
# Summary of the method: as §1
# AZD5991 = compound: Cc1c2c(nn1C)CSCc1cc(n(C)n1)CSc1cc(c3ccccc3c1)OCCCc1c(C(=O)O)n(C)c3c-2c(Cl)ccc13 [AZD5991]; conditions: max 1 µM
# Summary of the method: as §1
# AZD5153 = compound: COc1nnc2ccc(N3CCC(c4ccc(OCCN5CCN(C)C(=O)[C@H]5C)cc4)CC3)nn12 [AZD5153]; conditions: max 1 µM
# Summary of the method: as §1
# AZD5363 = compound: C1CN(CCC1(C(=O)N[C@@H](CCO)C2=CC=C(C=C2)Cl)N)C3=NC=NC4=C3C=CN4 [AZD5363]; conditions: max 10 µM
# Summary of the method: as §1
# AZD6738 = compound: C[C@@H]1COCCN1C2=NC(=NC(=C2)C3(CC3)[S@](=N)(=O)C)C4=C5C=CNC5=NC=C4 [AZD6738]; conditions: max 10 µM
# Summary of the method: as §1
# SG3199 = compound: CC1=CN2[C@@H](C1)C=NC3=CC(=C(C=C3C2=O)OC)OCCCCCOC4=C(C=C5C(=C4)N=C[C@@H]6CC(=CN6C5=O)C)OC [SG3199]; conditions: max 0.001 µM
# Summary of the method: as §1
# Alisertib = compound: COc1cc(Nc2ncc3c(n2)-c2ccc(Cl)cc2C(c2c(F)cccc2OC)=NC3)ccc1C(=O)O [Alisertib]; conditions: max 10 µM
# Summary of the method: as §1
# Etoposide = compound: COc1cc([C@@H]2c3cc4c(cc3[C@@H](O[C@@H]3O[C@@H]5CO[C@@H](C)O[C@H]5[C@H](O)[C@H]3O)[C@H]3COC(=O)[C@H]23)OCO4)cc(OC)c1O [Etoposide]; conditions: max 10 µM
# Summary of the method: as §1
# Taselisib = compound: Cc1nc(-c2cn3c(n2)-c2ccc(-c4cnn(C(C)(C)C(N)=O)c4)cc2OCC3)n(C(C)C)n1 [Taselisib]; conditions: max 10 µM
# Summary of the method: as §1
# AZD7648 = compound: Cc1cc2ncnn2cc1Nc1ncc2c(n1)n(C1CCOCC1)c(=O)n2C [AZD7648]; conditions: max 10 µM
# Summary of the method: as §1
# AZD1390 = compound: CC(C)n1c(=O)n(C)c2cnc3cc(F)c(-c4ccc(OCCCN5CCCCC5)nc4)cc3c21 [AZD1390]; conditions: max 0.3 µM
# Summary of the method: as §1
# Crizotinib = compound: C[C@@H](Oc1cc(-c2cnn(C3CCNCC3)c2)cnc1N)c1c(Cl)ccc(F)c1Cl [Crizotinib]; conditions: max 10 µM
# Summary of the method: as §1
# Paclitaxel = compound: CC(=O)O[C@H]1C(=O)[C@@]2(C)[C@H]([C@H](OC(=O)c3ccccc3)[C@]3(O)C[C@H](OC(=O)[C@H](O)[C@@H](NC(=O)c4ccccc4)c4ccccc4)C(C)=C1C3(C)C)[C@]1(OC(C)=O)CO[C@@H]1C[C@@H]2O [Paclitaxel]; conditions: max 3 µM
# Summary of the method: as §1
# Venetoclax = compound: CC1(C)CCC(CN2CCN(c3ccc(C(=O)NS(=O)(=O)c4ccc(NCC5CCOCC5)c([N+](=O)[O-])c4)c(Oc4cnc5[nH]ccc5c4)c3)CC2)=C(c2ccc(Cl)cc2)C1 [Venetoclax]; conditions: max 1 µM
# Summary of the method: as §1
# AZD0156 = compound: CN(C)CCCOc1ccc(-c2ccc3ncc4c(c3c2)n(C2CCOCC2)c(=O)n4C)cn1 [AZD0156]
# Summary of the method: as §1
# Selumetinib = compound: Cn1cnc2c(F)c(Nc3ccc(Br)cc3Cl)c(C(=O)NOCCO)cc21 [Selumetinib]; conditions: max 10 µM
# Summary of the method: as §1
# Capivasertib = compound: C1CN(CCC1(C(=O)N[C@@H](CCO)C2=CC=C(C=C2)Cl)N)C3=NC=NC4=C3C=CN4 [Capivasertib]; conditions: max 10 µM
# Summary of the method: as §1
Cell Line,"IC50, cell viability 72 h (AZD8186; max 10 µM)","IC50, cell viability 72 h (AZD1775; max 3 µM)","IC50, cell viability 72 h (Savolitinib)","IC50, cell viability 72 h (Trametinib)","IC50, cell viability 72 h (AZD2811)","IC50, cell viability 72 h (Lapatinib)","IC50, cell viability 72 h (Palbociclib)","IC50, cell viability 72 h (Prexasertib)","IC50, cell viability 72 h (SRA737)","IC50, cell viability 72 h (Olaparib)","IC50, cell viability 72 h (Gefitinib)","IC50, cell viability 72 h (Carboplatin)","IC50, cell viability 72 h (SN-38)","IC50, cell viability 72 h (AZD4320)","IC50, cell viability 72 h (Dasatinib)","IC50, cell viability 72 h [1]","IC50, cell viability 72 h (MK-2206)","IC50, cell viability 72 h (Doxorubicin)","IC50, cell viability 72 h (5-Fluorouracil)","IC50, cell viability 72 h (Gemcitabine)","IC50, cell viability 72 h (AZD5991)","IC50, cell viability 72 h (AZD5153)","IC50, cell viability 72 h (AZD5363)","IC50, cell viability 72 h (AZD6738)","IC50, cell viability 72 h (SG3199)","IC50, cell viability 72 h (Alisertib)","IC50, cell viability 72 h (Etoposide)","IC50, cell viability 72 h (Taselisib)","IC50, cell viability 72 h (AZD7648)","IC50, cell viability 72 h (AZD1390)","IC50, cell viability 72 h (Crizotinib)","IC50, cell viability 72 h (Paclitaxel)","IC50, cell viability 72 h (Venetoclax)","IC50, cell viability 72 h (AZD0156; max 3 µM)","IC50, cell viability 72 h (Selumetinib)","IC50, cell viability 72 h (AZD1775; max 1 µM)","IC50, cell viability 72 h (AZD0156; max 1 µM)","IC50, cell viability 72 h (AZD8186; max 3 µM)","IC50, cell viability 72 h (Capivasertib)"
LOXIMVI (Melanoma),> 10 µM,1.37 µM,> 1 µM,0.0178 µM,> 1 µM,> 10 µM,9.91 µM,0.0896 µM,> 10 µM,> 10 µM,> 10 µM,> 10 µM,0.0289 µM,> 1 µM,0.135 µM,0.145 µM,> 10 µM,0.294 µM,> 20 µM,0.0589 µM,> 1 µM,0.111 µM,> 10 µM,3.27 µM,> 0.001 µM,5.35 µM,> 10 µM,2.17 µM,> 10 µM,> 0.3 µM,6.35 µM,0.0268 µM,> 1 µM,> 3 µM,1.5 µM,,,,
SW1710 (Bladder Carcinoma),> 10 µM,> 3 µM,> 1 µM,> 1 µM,> 1 µM,> 10 µM,> 10 µM,0.0864 µM,> 10 µM,> 10 µM,> 10 µM,> 10 µM,> 0.3 µM,> 1 µM,0.19 µM,> 5 µM,> 10 µM,> 1 µM,> 20 µM,> 0.3 µM,> 1 µM,> 1 µM,> 10 µM,> 10 µM,> 0.001 µM,> 10 µM,> 10 µM,> 10 µM,> 10 µM,> 0.3 µM,> 10 µM,0.0151 µM,> 1 µM,> 3 µM,> 10 µM,,,,
LNZTA3WT4 (Low Grade Glioma),> 10 µM,0.624 µM,> 1 µM,> 1 µM,> 1 µM,> 10 µM,> 10 µM,0.0187 µM,4.63 µM,> 10 µM,> 10 µM,> 10 µM,0.269 µM,> 1 µM,> 2 µM,> 5 µM,> 10 µM,> 1 µM,> 20 µM,0.0997 µM,> 1 µM,> 1 µM,> 10 µM,4.5 µM,> 0.001 µM,> 10 µM,> 10 µM,> 10 µM,> 10 µM,> 0.3 µM,> 10 µM,0.141 µM,> 1 µM,> 3 µM,> 10 µM,,,,
SNU-16 (Gastric Carcinoma),> 10 µM,,> 1 µM,> 1 µM,0.479 µM,> 10 µM,6.23 µM,0.0101 µM,1.2 µM,> 10 µM,9.59 µM,> 10 µM,0.0229 µM,> 1 µM,> 2 µM,> 5 µM,> 10 µM,0.301 µM,> 20 µM,0.00696 µM,0.17 µM,0.241 µM,> 10 µM,0.754 µM,> 0.001 µM,0.106 µM,5.56 µM,> 10 µM,> 10 µM,> 0.3 µM,2.8 µM,< 0.003 µM,> 1 µM,,> 10 µM,0.522 µM,> 1 µM,,
NCI-H2052 (Mesothelioma),,> 3 µM,> 1 µM,> 1 µM,> 1 µM,> 10 µM,> 10 µM,0.574 µM,,> 10 µM,> 10 µM,,0.0385 µM,> 1 µM,1.51 µM,,> 10 µM,> 1 µM,,,> 1 µM,> 1 µM,,> 10 µM,> 0.001 µM,> 10 µM,,3.67 µM,> 10 µM,> 0.3 µM,> 10 µM,,> 1 µM,> 3 µM,> 10 µM,,,> 3 µM,> 10 µM
